Counter-ions that a name gives are not always drawn. Like-named read-outs stand apart in the source and are kept apart here.
How the values were obtained:
hESC-derived NSCs = experiment: ATP assay in hESC-derived NSCs (96-well, primary screen and retest); assay type: cell-based, human; parameters: cytotoxicity: dose or concentration left out as unconfirmed; toxicity to NSCs (reduced ATP concentrations) / ATP levels in NSC population: unit of the concentration uncertain; conditions: for toxicity to NSCs (reduced ATP concentrations): 1 (unit uncertain), 2.5 (unit uncertain) and 10 (unit uncertain), treated NSCs versus untreated NSCs, untreated and treated hESCs
Method: EBs were then cultured for additional 2-3 days in suspension in neural induction media containing DMEM/F12 with Glutamax, 1×NEAA, 1×N2 and FGF2 (20 ng/ml) prior to attachment on cell culture plates. […] To obtain a pure population of NSCs, rosettes were manually isolated and dissociated into single cells using Accutase. The NSCs population was expanded in Neurobasal media containing 1×NEAA, 1×L-Glutamine (2 mM), 1×B27, LIF and FGF2 20 ng/ml.
Media was changed every day for hESCs and every other day for NSCs and additionally changed prior to drug treatment. The cells were treated with compounds from the NINDS library diluted in […] of either ESC or NSC media to a final concentration of 2.5 mM in 0.01% DMSO. […] For all sampling, ESC and NSC plates were processed in parallel for one drug or control condition at a time.
For ATP measurements, the media was removed, cells were washed 1× in milliQ water and reconstituted in […] ATP-Lite Mammalian Lysis Buffer and shaken for 5 minutes. Two […] aliquots of lysed cells were replated onto separate 96 well plates for later protein measurements.
To identify compounds that are toxic to hESCs, hESC-derived NSCs, or both, we screened 720 FDA-approved drugs of the NINDS collection by testing the toxicity of each drug at a dose of 2.5 mM. For endpoint measurement of cell death caused by drug toxicity, we used a widely accepted ATP assay that measures changes in ATP level as an indicator of cellular response to cell death. In this assay, total ATP content per well was measured and normalized to the total cellular protein.
Three concentrations of each compound (1 mM, 2.5 mM and 10 mM) were used in the retest.

[1] = tested on: hESCs and hESC-derived NSCs; experiment: Comparative ATP screening on hESCs and hESC-derived NSCs (ratio ESC/NSC or NSC/ESC); parameters: hit class in primary screen / ESC/NSC: dose or concentration left out as unconfirmed; conditions: for hit class in primary screen: NINDS primary screen, ATP relative to DMSO controls
Excerpt: Hits were defined based on the ability of a compound to affect ATP levels relative to DMSO controls on each plate.

[2] = Homo sapiens, NINDS primary screen, 48 hours, read-out: NSC ATP values below the control mean
[3] = Prestwick screening data, group: Toxic To NSC (and not ESCs)
[4] = NINDS screening data, […], ATP assay, 48 hours
[5] = Prestwick screening data, group: Toxic to both but (5x) more toxic to ESCs
[6] = Prestwick screening data, group: Toxic To ESCs (and not NSCs)

`CC(C)(C)CC(C)(C)c1ccc(O)c(Cc2ccc(Cl)cc2Cl)c1` [Clofoctol] was tested, and the cytotoxicity (hESC-derived NSCs; [2]) was no less than 15%, the “toxicity to NSCs (reduced ATP concentrations)” value (hESC-derived NSCs; retest) was “dose-dependent specific toxicity” and the “hit class in primary screen” value [1] was “NSC Killers”.

`CCc1nc(N)nc(N)c1-c1ccc(Cl)cc1` [Pyrimethamine] was tested, and the ESC/NSC [1, 3] was 2.009.

For `O=c1[nH]c(=O)n([C@H]2C[C@H](O)[C@@H](CO)O2)cc1C(F)(F)F` [Trifluridine], the ESC/NSC [1, 3] was 2.955.

`CC(=O)Oc1ccc(C(c2ccc(OC(C)=O)cc2)c2ccccn2)cc1` [Bisacodyl] gave an ESC/NSC [1, 3] of 2.701.

With `CN1Cc2c(ccc3c2OCO3)C2C(O)Cc3cc4c(cc3C21)OCO4` (stereo not drawn) [Chelidonine (+)] the ESC/NSC [1, 3] was 1.999.

`C[n+]1cc2c3c(ccc2c2ccc4cc5c(cc4c21)OCO5)OCO3` [Sanguinarine Nitrate] showed an ESC/NSC [1, 4] of 8.446.

With `CO[C@H]1C[C@H](O[C@@H]2/C(C)=C/C[C@@H]3C[C@@H](C[C@]4(CC[C@H](C)[C@@H](C5CCCCC5)O4)O3)OC(=O)[C@@H]3C=C(C)/C(=N/O)[C@H]4OC/C(=C\C=C\[C@@H]2C)[C@]43O)O[C@@H](C)[C@@H]1O` [Selamectin] the cytotoxicity at 2500 µM (hESC-derived NSCs; Homo sapiens, NINDS primary screen, 2.5 mM, 48 hours, read-out: NSC ATP values below the control mean) was no less than 15%, the “toxicity to NSCs (reduced ATP concentrations)” value (hESC-derived NSCs; retest) was “dose-dependent specific toxicity” and the “effect on NSC survival among dose responsive compounds” value (hESC-derived NSCs; retest, FIG. 2 panel B) was “most dramatic effect on NSC survival”. For the same compound, the “hit class in primary screen” value [1] was “NSC Killers”.

In the case of `CC(=O)O[C@H]1C(=O)[C@@]2(C)[C@H]([C@H](OC(=O)c3ccccc3)[C@]3(O)C[C@H](OC(=O)[C@H](O)[C@@H](NC(=O)c4ccccc4)c4ccccc4)C(C)=C1C3(C)C)[C@]1(OC(C)=O)CO[C@@H]1C[C@@H]2O` [Paclitaxel], the NSC/ESC [1, 5] is reported as 5.325.

`CC[C@@]1(O)C(=O)OCc2c1cc1n(c2=O)Cc2cc3ccccc3nc2-1` [Camptothecine (S,+)] gave an NSC/ESC [1, 5] of 14.46.

Work on `C[C@H]1CC[C@]2(NC1)O[C@H]1C[C@H]3[C@@H]4CC[C@H]5C[C@@H](O[C@@H]6O[C@H](CO)[C@H](O[C@@H]7O[C@H](CO)[C@@H](O)[C@H](O[C@@H]8OC[C@@H](O)[C@H](O)[C@H]8O)[C@H]7O[C@@H]7O[C@H](CO)[C@@H](O)[C@H](O)[C@H]7O)[C@H](O)[C@H]6O)CC[C@]5(C)[C@H]4CC[C@]3(C)[C@H]1[C@@H]2C` [Tomatine] yielded an ESC/NSC ([1]; Prestwick screening data, […]) of 9.242.

With `Cl.Cl.c1ccc2c3c([nH]c2c1)C1C2CCC(C4CCCNC42)N1CC3` (stereo not shown) [Nitrarine Dihydrochloride] the NSC/ESC [1, 6] was 1.949.

`CCCCCCCCCCCCCCCC[N+](C)(C)C.[Br-]` [Cetrimonium Bromide] showed an ESC/NSC [1, 4] of 5.402.

With `Cc1ccnc(NS(=O)(=O)c2ccc(N)cc2)n1` [Sulfamerazine] the NSC/ESC [1, 6] was 2.003.

For `CCC(=O)O[C@]1(C(=O)SCF)[C@H](C)C[C@H]2[C@@H]3C[C@H](F)C4=CC(=O)C=C[C@]4(C)[C@@]3(F)[C@@H](O)C[C@@]21C` [Fluticasone Propionate], the NSC/ESC [1, 6] was 1.954.

For `C1CCC(C(CC2CCCCN2)C2CCCCC2)CC1.O=C(O)/C=C\C(=O)O` (stereo not shown) [Perhexilline Maleate], the “hit class in primary screen” value [1] was “NSC Killers”.

Compound (−)-Levobunolol Hydrochloride has an NSC/ESC [1, 6] of 1.689.

With `COC(=O)Nc1nc2ccc(SC(C)C)cc2[nH]1` [Methiazole] the ESC/NSC [1, 3] was 3.01.

For `C[n+]1cc2c3c(ccc2c2ccc4cc5c(cc4c21)OCO5)OCO3` [Sanguinarine], the ESC/NSC ([1]; Prestwick screening data, […]) was 102.6.

`CN(Cc1cnc2nc(N)nc(N)c2n1)c1ccc(C(=O)N[C@@H](CCC(=O)O)C(=O)O)cc1` (racemic) [Amethopterin (R,S)] gave an ESC/NSC [1, 3] of 6.45.

For `C[C@@]12C(=O)OC(=O)[C@]1(C)[C@H]1CC[C@@H]2O1` [Cantharidin], the ESC/NSC ([1]; Prestwick screening data, group: Toxic to both but (>5x) more toxic to NSCs) was 6.171.

With `Fc1ccc(C(OCCN2CCN(CCCc3ccccc3)CC2)c2ccc(F)cc2)cc1` [Gbr 12909 Dihydrochloride] the NSC/ESC [1, 6] was 1.754.

With `COc1ccc(CN(CCN(C)C)c2ccccn2)cc1` [Pyrilamine Maleate] the NSC/ESC [1, 6] was 1.934.

`CNc1ccc2oc(C[C@H]3O[C@@]4(CC[C@H]3C)O[C@H]([C@H](C)C(=O)c3ccc[nH]3)[C@H](C)C[C@H]4C)nc2c1C(=O)O` [Calcimycin] showed an ESC/NSC [1, 4] of 377.6.

Compound `CC[C@@H](C(=O)[C@@H](C)[C@@H](O)[C@H](C)CCc1ccc(C)c(O)c1C(=O)O)[C@H]1O[C@](CC)([C@H]2CC[C@](O)(CC)[C@H](C)O2)C[C@@H]1C` [Lasalocid Sodium Salt] has an ESC/NSC [1, 3] of 2.052.

With `CC[N+]1(C)[C@@H]2CC[C@H]1CC(OC(=O)[C@@H]1CC[C@@](C(=O)OC3C[C@H]4CC[C@@H](C3)[N+]4(C)CC)(c3ccccc3)c3ccccc31)C2.[Cl-].[Cl-]` (stereo partly drawn) [Beta-Belladonnine Dichloroethylate] the NSC/ESC [1, 6] was 2.717.

`COc1ccc2c(c1OC)CN1CCc3cc4c(cc3C1C2)OCO4` (stereo not shown) [(D,L)-Tetrahydroberberine] was tested, and the NSC/ESC [1, 6] was 2.336.

Clofilium Tosylate showed an NSC/ESC [1, 6] of 2.184.

`COc1ccc(C[C@H](N)C(=O)N[C@H]2[C@@H](O)[C@H](n3cnc4c(N(C)C)ncnc43)O[C@@H]2CO)cc1` [Puromycin Dihydrochloride] gave an NSC/ESC [1, 5] of 10.84.

In the case of `[O-][n+]1ccccc1[S-].[O-][n+]1ccccc1[S-].[Zn+2]` [Pyrithione Zinc], the ESC/NSC [1] is reported as 116.4.

`CN1CCN(CC(=O)N2c3ccccc3C(=O)Nc3cccnc32)CC1` [pirenzepine HCL] was tested, and the cytotoxicity (hESC-derived NSCs; [2]) was no less than 15%, the “toxicity to NSCs (reduced ATP concentrations)” value (hESC-derived NSCs; retest) was “dose-dependent specific toxicity” and the “hit class in primary screen” value [1] was “NSC Killers”.

For `CCCCC(CC)CN1CN(CC(CC)CCCC)CC(C)(N)C1` (stereo not shown) [Hexetidine], the cytotoxicity (hESC-derived NSCs; [2]) was no less than 15% and the “hit class in primary screen” value [1] was “NSC Killers”.

In the case of `CCN(CC)C(=S)SSC(=S)N(CC)CC` [Disulfiram], the NSC/ESC [1, 6] is reported as 10.3.

With `COc1cccc2c1C(=O)c1c(O)c3c(c(O)c1C2=O)C[C@@](O)(C(=O)CO)C[C@@H]3O[C@H]1C[C@H](N)[C@H](O)[C@H](C)O1` [Doxorubicin Hydrochloride] the NSC/ESC [1, 5] was 8.906.

In the case of `CC1=CC(=O)c2ccccc2C1=O` [Menadione], the cytotoxicity (hESC-derived NSCs; [2]) is reported as no less than 15%, the “toxicity to NSCs (reduced ATP concentrations)” value (hESC-derived NSCs; retest) is reported as “dose-dependent specific toxicity” and the “hit class in primary screen” value [1] is reported as “NSC Killers”.

`CCCCCCCCCCCCCCCC[n+]1ccccc1` [Cetylpyridinium Chloride] was tested, and the ESC/NSC [1] was 109.4.

Compound `CC1(C)O[C@@H]2C[C@H]3[C@@H]4C[C@H](F)C5=CC(=O)CC[C@]5(C)[C@H]4[C@@H](O)C[C@]3(C)[C@]2(C(=O)CO)O1` [Flurandrenolide] has an NSC/ESC [1, 6] of 2.308.

With `COC1=CC(=O)C[C@@H](C)[C@]12Oc1c(Cl)c(OC)cc(OC)c1C2=O` [griseofulvin] the cytotoxicity (hESC-derived NSCs; [2]) was no less than 15% and the “hit class in primary screen” value [1] was “NSC Killers”.

In the case of `COc1cc(-c2ccc(=O)[nH]n2)ccc1OC(F)F` [Zardaverine], the NSC/ESC [1, 6] is reported as 1.976.

Reference: US20120244567A1, “HUMAN EMBRYONIC STEM CELLS FOR HIGH THROUGHOUT DRUG SCREENING” (BUCK INSTITUTE FOR RESEARCH ON AGING, priority 2009, published 2012)
